# Key:
# Experiment in all cases: relative viability (nuclei count vs DMSO), 5 days (fraction); higher = more cells survive
# ABC-1 = system: ABC-1
# In short: (§1)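 Lung cancer cell lines in 1536-well plates got either a single drug or a fixed anchor-drug dose together with five library-drug doses (not always all listed) in √10 steps, by pin tool, on the day after seeding. Nuclei were counted after 5 days, and relative viability is the treated-to-vehicle ratio of nuclei counts. Values are medians of duplicate plates.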
# NCI-H23 = system: NCI-H23
# In short: as §1
# NCI-H2009 = system: NCI-H2009
# In short: as §1
# PC-14 = system: PC-14
# In short: as §1
# UMC-11 = system: UMC-11
# In short: as §1
# LCLC-103H = system: LCLC-103H
# In short: as §1
# SK-MES-1 = system: SK-MES-1
# In short: as §1
# HCC-827 = system: HCC-827
# In short: as §1
# NCI-H661 = system: NCI-H661
# In short: as §1
# LXF-289 = system: LXF-289
# In short: as §1
# HCC-366 = system: HCC-366
# In short: as §1
# NCI-H1666 = system: NCI-H1666
# In short: as §1
# NCI-H1975 = system: NCI-H1975
# In short: as §1
# PC-3 [JPC-3] = system: PC-3 [JPC-3]
# In short: as §1
# H3255 = system: H3255
# In short: as §1
# NCI-H1437 = system: NCI-H1437
# In short: as §1
# NCI-H2087 = system: NCI-H2087
# In short: as §1
# NCI-H2085 = system: NCI-H2085
# In short: as §1
# LC-2-ad = system: LC-2-ad
# In short: as §1
# COR-L23 = system: COR-L23
# In short: as §1
# NCI-H2228 = system: NCI-H2228
# In short: as §1
# HCC-15 = system: HCC-15
# In short: as §1
smiles,measurement,setting,value
Cc1csc(=NC2CCCCC2)n1/N=C/c1ccc(O)c(O)c1O [MIM1] + Cc1nc(NC(=O)N2CCC[C@H]2C(N)=O)sc1-c1ccnc(C(C)(C)C(F)(F)F)c1 [Alpelisib] (partner 2 µM),relative viability,ABC-1; first compound 0.2 µM,1.02
same,relative viability,ABC-1; first compound 0.6325 µM,1.05
same,relative viability,ABC-1; first compound 2 µM,0.913
same,relative viability,ABC-1; first compound 6.325 µM,0.816
same,relative viability,ABC-1; first compound 20 µM,0.322
same,relative viability,NCI-H23; first compound 0.2 µM,0.653
same,relative viability,NCI-H23; first compound 2 µM,0.555
same,relative viability,NCI-H23; first compound 6.325 µM,0.606
same,relative viability,NCI-H23; first compound 20 µM,0.203
same,relative viability,NCI-H2009; first compound 0.2 µM,1.14
same,relative viability,NCI-H2009; first compound 0.6325 µM,1.21
same,relative viability,NCI-H2009; first compound 2 µM,1.23
same,relative viability,NCI-H2009; first compound 6.325 µM,1.04
same,relative viability,NCI-H2009; first compound 20 µM,0.987
same,relative viability,PC-14; first compound 0.2 µM,0.886
same,relative viability,PC-14; first compound 0.6325 µM,0.92
same,relative viability,PC-14; first compound 2 µM,0.847
same,relative viability,PC-14; first compound 6.325 µM,0.878
same,relative viability,PC-14; first compound 20 µM,0.383
same,relative viability,UMC-11; first compound 0.2 µM,0.952
same,relative viability,UMC-11; first compound 0.6325 µM,1.04
same,relative viability,UMC-11; first compound 2 µM,0.962
same,relative viability,UMC-11; first compound 6.325 µM,0.69
same,relative viability,UMC-11; first compound 20 µM,0.224
same,relative viability,LCLC-103H; first compound 0.2 µM,0.9
same,relative viability,LCLC-103H; first compound 0.6325 µM,1.08
same,relative viability,LCLC-103H; first compound 2 µM,1.08
same,relative viability,LCLC-103H; first compound 6.325 µM,0.913
same,relative viability,LCLC-103H; first compound 20 µM,0.928
same,relative viability,SK-MES-1; first compound 0.2 µM,0.913
same,relative viability,SK-MES-1; first compound 0.6325 µM,0.774
same,relative viability,SK-MES-1; first compound 2 µM,0.813
same,relative viability,SK-MES-1; first compound 6.325 µM,0.8
same,relative viability,SK-MES-1; first compound 20 µM,0.725
same,relative viability,HCC-827; first compound 0.2 µM,0.953
same,relative viability,HCC-827; first compound 0.6325 µM,0.986
same,relative viability,HCC-827; first compound 2 µM,0.913
same,relative viability,HCC-827; first compound 6.325 µM,0.441
same,relative viability,HCC-827; first compound 20 µM,0.34
same,relative viability,NCI-H661; first compound 0.2 µM,0.728
same,relative viability,NCI-H661; first compound 0.6325 µM,0.847
same,relative viability,NCI-H661; first compound 2 µM,0.655
same,relative viability,NCI-H661; first compound 6.325 µM,0.472
same,relative viability,NCI-H661; first compound 20 µM,0.305
same,relative viability,LXF-289; first compound 0.2 µM,1.07
same,relative viability,LXF-289; first compound 0.6325 µM,0.998
same,relative viability,LXF-289; first compound 2 µM,1.02
same,relative viability,LXF-289; first compound 6.325 µM,0.82
same,relative viability,LXF-289; first compound 20 µM,0.609
same,relative viability,HCC-366; first compound 0.2 µM,0.37
same,relative viability,HCC-366; first compound 0.6325 µM,0.37
same,relative viability,HCC-366; first compound 2 µM,0.335
same,relative viability,HCC-366; first compound 6.325 µM,0.308
same,relative viability,HCC-366; first compound 20 µM,0.0363
same,relative viability,NCI-H1666; first compound 0.2 µM,0.827
same,relative viability,NCI-H1666; first compound 0.6325 µM,0.877
same,relative viability,NCI-H1666; first compound 2 µM,0.815
same,relative viability,NCI-H1666; first compound 6.325 µM,0.659
same,relative viability,NCI-H1666; first compound 20 µM,0.405
same,relative viability,NCI-H1975; first compound 0.2 µM,0.63
same,relative viability,NCI-H1975; first compound 0.6325 µM,0.624
same,relative viability,NCI-H1975; first compound 2 µM,0.569
same,relative viability,NCI-H1975; first compound 6.325 µM,0.391
same,relative viability,NCI-H1975; first compound 20 µM,0.313
same,relative viability,PC-3 [JPC-3]; first compound 0.2 µM,1.06
same,relative viability,PC-3 [JPC-3]; first compound 0.6325 µM,1.03
same,relative viability,PC-3 [JPC-3]; first compound 2 µM,1.02
same,relative viability,PC-3 [JPC-3]; first compound 6.325 µM,0.884
same,relative viability,PC-3 [JPC-3]; first compound 20 µM,0.716
same,relative viability,H3255; first compound 0.2 µM,0.753
same,relative viability,H3255; first compound 0.6325 µM,0.56
same,relative viability,H3255; first compound 2 µM,0.642
same,relative viability,H3255; first compound 6.325 µM,0.523
same,relative viability,H3255; first compound 20 µM,0.311
same,relative viability,NCI-H1437; first compound 0.2 µM,0.843
same,relative viability,NCI-H1437; first compound 0.6325 µM,0.935
same,relative viability,NCI-H1437; first compound 2 µM,0.959
same,relative viability,NCI-H1437; first compound 6.325 µM,0.592
same,relative viability,NCI-H1437; first compound 20 µM,0.289
same,relative viability,NCI-H2087; first compound 0.2 µM,1.17
same,relative viability,NCI-H2087; first compound 0.6325 µM,1.2
same,relative viability,NCI-H2087; first compound 2 µM,1.06
same,relative viability,NCI-H2087; first compound 6.325 µM,0.886
same,relative viability,NCI-H2087; first compound 20 µM,0.706
same,relative viability,NCI-H2085; first compound 0.2 µM,0.946
same,relative viability,NCI-H2085; first compound 0.6325 µM,1.02
same,relative viability,NCI-H2085; first compound 2 µM,0.984
same,relative viability,NCI-H2085; first compound 6.325 µM,0.84
same,relative viability,NCI-H2085; first compound 20 µM,0.882
same,relative viability,LC-2-ad; first compound 0.2 µM,0.867
same,relative viability,LC-2-ad; first compound 0.6325 µM,0.905
same,relative viability,LC-2-ad; first compound 2 µM,0.946
same,relative viability,LC-2-ad; first compound 6.325 µM,0.527
same,relative viability,LC-2-ad; first compound 20 µM,0.116
same,relative viability,COR-L23; first compound 0.2 µM,0.725
same,relative viability,COR-L23; first compound 0.6325 µM,0.809
same,relative viability,COR-L23; first compound 2 µM,0.537
same,relative viability,COR-L23; first compound 6.325 µM,0.558
same,relative viability,COR-L23; first compound 20 µM,0.457
same,relative viability,NCI-H2228; first compound 0.2 µM,0.76
same,relative viability,NCI-H2228; first compound 0.6325 µM,1.09
same,relative viability,NCI-H2228; first compound 2 µM,0.666
same,relative viability,NCI-H2228; first compound 6.325 µM,0.335
same,relative viability,NCI-H2228; first compound 20 µM,0.197
same,relative viability,HCC-15; first compound 0.2 µM,0.989
same,relative viability,HCC-15; first compound 0.6325 µM,0.838
same,relative viability,HCC-15; first compound 2 µM,0.967
same,relative viability,HCC-15; first compound 6.325 µM,0.481
same,relative viability,HCC-15; first compound 20 µM,0.125

# — the supplement of paper PMC10307832
